Assay: xn = mol fraction of the nth substance listed

CC(C)OCCO + CCCNCCC
viscosity [mPa·s], 101.33 kPa
Conditions	298.15 K	308.15 K	318.15 K
x1 = 0.0484	0.544	0.476	0.41
x1 = 0.0855	0.581	0.505	0.435
x1 = 0.1225	0.625	0.534	0.458
x1 = 0.1899	0.704	0.599	0.502
x1 = 0.2514	0.798	0.671	0.555
x1 = 0.3234	0.918	0.76	0.617
x1 = 0.3933	1.046	0.855	0.685
x1 = 0.4465	1.154	0.941	0.747
x1 = 0.482	1.237	1.001	0.785
x1 = 0.5205	1.313	1.058	0.83
x1 = 0.6318	1.571	1.242	0.959
x1 = 0.73	1.776	1.381	1.076
x1 = 0.8358	1.959	1.516	1.187
x1 = 0.919	2.057	1.595	1.268
x1 = 0.9596	2.087	1.618	1.292

CCOS(=O)(=O)[O-].CC[N+](CC)=C(N(C)C)N(C)C + CO
viscosity [mPa·s], 100 kPa
Conditions	x1 = 0.1	x1 = 0.1991	x1 = 0.298	x1 = 0.3949	x1 = 0.4982	x1 = 0.5999	x1 = 0.6953	x1 = 0.7999	x1 = 0.9002
293.15 K	1.785	4.501	9.381	18.38	32.98	53.59	80.2	115.6	153.4
298.15 K	1.634	4.072	8.2	15.58	27.24	42.8	62.36	87.46	112.3
303.15 K	1.504	3.661	7.163	13.38	22.82	34.85	49.55	67.85	86.71
308.15 K	1.389	3.307	6.417	11.63	19.37	28.79	40.16	53.89	67.59
313.15 K	1.287	3	5.724	10.18	16.65	24.17	33.08	43.49	53.73
318.15 K	1.195	2.734	4.994	8.991	14.45	20.55	27.69	35.64	43.24
323.15 K	1.113	2.5	4.58	7.999	12.64	17.68	23.46	29.74	35.49

CCOC(=O)CCl + O=C1CCCCC1
viscosity [mPa·s], 101.3 kPa
Conditions	x1 = 0.1084	x1 = 0.2069	x1 = 0.306	x1 = 0.3993	x1 = 0.5032	x1 = 0.6002	x1 = 0.6945	x1 = 0.7947	x1 = 0.8975
298.15 K	1.745	1.604	1.493	1.403	1.352	1.283	1.23	1.191	1.144
303.15 K	1.595	1.47	1.376	1.298	1.244	1.184	1.139	1.101	1.058
308.15 K	1.444	1.336	1.259	1.19	1.135	1.087	1.047	1.011	0.972

O=C(O)CC(=O)O + C[N+](C)(C)CCO.[Cl-]
viscosity [mPa·s]
Conditions	293.15 K	293.2 K	298.15 K	303.15 K	303.2 K	308.15 K	313.15 K	313.2 K	318.15 K	323.15 K
100 kPa, x2 = 0.5	2016	–	1389	982.9	–	710.7	524.5	–	393.9	301.2
101 kPa, x2 = 0.5	1651	–	1084	679.6	–	486.4	372.5	–	286.5	207.2
101.3 kPa, x2 = 0.502	–	1600	–	–	1029	–	–	615	–	–

O=C(Cc1ccccc1)Cc1ccccc1 + CCCCCOC(C)=O
298.15 K, 101 kPa
Conditions	viscosity [mPa·s]
x1 = 0.0269	0.8322
x1 = 0.0305	0.8358

CCCC[n+]1ccn(C)c1.O=[N+]([O-])[O-] + CCO
101 kPa
Conditions	viscosity [mPa·s]
293.15 K, x1 = 0.8	73.11
303.15 K, x1 = 0.6	22.05

CNC=O + CC(=O)N(C)C
viscosity [mPa·s], 101 kPa
Conditions	x2 = 0.0697	x2 = 0.0811	x2 = 0.1686	x2 = 0.2571	x2 = 0.3498	x2 = 0.4488	x2 = 0.545	x2 = 0.6533	x2 = 0.7606	x2 = 0.8777
293.15 K	1.824	1.81	1.709	1.612	1.516	1.422	1.337	1.252	1.176	1.101
303.15 K	1.543	1.532	1.452	1.374	1.296	1.219	1.151	1.083	1.021	0.962
313.15 K	1.325	1.316	1.252	1.188	1.125	1.063	1.007	0.95	0.9	0.85
323.15 K	1.157	1.149	1.096	1.044	0.991	0.94	0.893	0.846	0.803	0.762

CCOC(=O)CCl + Clc1ccccc1
viscosity [mPa·s], 101.3 kPa
Conditions	x1 = 0.1064	x1 = 0.2055	x1 = 0.3	x1 = 0.3972	x1 = 0.5005	x1 = 0.5976	x1 = 0.6985	x1 = 0.7953	x1 = 0.8963
298.15 K	0.799	0.828	0.858	0.889	0.925	0.959	0.996	1.031	1.064
303.15 K	0.752	0.778	0.804	0.834	0.865	0.895	0.927	0.959	0.986
308.15 K	0.706	0.728	0.751	0.776	0.804	0.831	0.858	0.885	0.91

C=CC(=O)OC(C)(C)C + C1CCOC1
viscosity [mPa·s], 101 kPa
Conditions	293.15 K	298.15 K	303.15 K	308.15 K	313.15 K	318.15 K
x2 = 0.0736	0.8645	0.7935	0.7273	0.6717	0.622	0.579
x2 = 0.1489	0.8229	0.757	0.6954	0.6433	0.5964	0.5554
x2 = 0.2121	0.7896	0.7278	0.6699	0.6206	0.5759	0.5365
x2 = 0.2773	0.7568	0.6992	0.6449	0.5984	0.5558	0.5179
x2 = 0.362	0.7164	0.664	0.6143	0.5711	0.5312	0.495
x2 = 0.4382	0.6823	0.6343	0.5886	0.5482	0.5105	0.4758
x2 = 0.5024	0.6551	0.6107	0.5681	0.53	0.494	0.4604
x2 = 0.5815	0.6237	0.5835	0.5446	0.5091	0.475	0.4427
x2 = 0.6532	0.597	0.5605	0.5247	0.4914	0.4589	0.4276
x2 = 0.7268	0.5716	0.5385	0.5058	0.4745	0.4435	0.4131
x2 = 0.7921	0.5505	0.5204	0.4902	0.4607	0.4308	0.4012
x2 = 0.8698	0.5273	0.5006	0.4732	0.4455	0.4168	0.3879
x2 = 0.9352	0.5094	0.4853	0.4601	0.4337	0.4059	0.3776

CCCCOCCO + O=[N+]([O-])c1ccccc1
298.15 K, 101 kPa
Conditions	viscosity [mPa·s]
x2 = 0.0547	2.794
x2 = 0.1022	2.774
x2 = 0.2045	2.736
x2 = 0.3045	2.699
x2 = 0.4006	2.651
x2 = 0.4508	2.618
x2 = 0.4991	2.58
x2 = 0.5486	2.537
x2 = 0.594	2.492
x2 = 0.6924	2.376
x2 = 0.7994	2.223
x2 = 0.8996	2.042
x2 = 0.9389	1.959

COC(=O)c1ccccc1 + CCCO
viscosity [mPa·s], 100 kPa
Conditions	x1 = 0.05	x1 = 0.1	x1 = 0.2	x1 = 0.3	x1 = 0.4	x1 = 0.5	x1 = 0.6	x1 = 0.65	x1 = 0.8	x1 = 0.9
293.2 K	2.016	1.887	1.724	1.65	1.622	1.621	1.649	1.669	1.76	1.872
298.2 K	1.794	1.685	1.547	1.487	1.464	1.466	1.492	1.511	1.594	1.693
303.2 K	1.601	1.509	1.395	1.344	1.327	1.332	1.357	1.375	1.453	1.54
308.2 K	1.434	1.356	1.262	1.22	1.209	1.215	1.239	1.257	1.33	1.41
313.2 K	1.288	1.223	1.145	1.112	1.104	1.113	1.138	1.154	1.223	1.297

CCOS(=O)(=O)[O-].CC[N+](CC)=C(N(C)C)N(C)C + O
viscosity [mPa·s], 100 kPa
Conditions	x1 = 0.0999	x1 = 0.2003	x1 = 0.3005	x1 = 0.4004	x1 = 0.4989	x1 = 0.6001	x1 = 0.7	x1 = 0.801	x1 = 0.8982
293.15 K	12.38	25.31	39.06	53.18	68.18	85.88	107	132.6	160.6
298.15 K	10.01	19.81	29.97	40.42	51.48	64.33	79.13	97.08	116.9
303.15 K	8.224	15.93	23.79	31.86	40.31	49.98	60.7	73.9	88.11
308.15 K	6.765	12.88	19.09	25.43	32.02	39.28	47.26	57.08	67.41
313.15 K	5.628	10.63	15.72	20.82	26.05	31.62	37.7	45.18	53.08
318.15 K	4.66	8.802	13.04	17.16	21.39	25.68	30.35	36.2	42.47
323.15 K	3.828	7.374	10.99	14.3	17.61	21.15	24.97	29.66	34.73

CCCCOCCO + c1ccccc1
viscosity [mPa·s], 101 kPa
Conditions	298.15 K	308.15 K
x1 = 0.0553	0.648	0.562
x1 = 0.1496	0.736	0.631
x1 = 0.2488	0.845	0.717
x1 = 0.3504	0.978	0.821
x1 = 0.4555	1.144	0.949
x1 = 0.4995	1.223	1.011
x1 = 0.5504	1.323	1.088
x1 = 0.6482	1.543	1.258
x1 = 0.7535	1.83	1.479
x1 = 0.8483	2.143	1.718
x1 = 0.9556	2.575	2.048

From the CheMixHub viscosity set
